Data taken from patent publication US10322995B2, “Substituted cyano cycloalkyl penta-2,4-dienes, cyano cycloalkyl pent-2-en-4-ynes, cyano heterocyclyl penta-2,4-dienes and cyano heterocyclyl pent-2-en-4-ynes as active substances against abiotic plant stress” (BAYER CROPSCIENCE AKTIENGESELLSCHAFT, priority 2014, dated 2019).

Assays:
Set-up in all cases: key: 0: no positive effect; 10: slight positive effect; 20: clear positive effect; 30: strong positive effect
Brassica napus (BRSNS) = experiment: In vivo analyses Part B: drought stress, appearance vs stressed control plants in categories (BRSNS); settings: spray application 250 g/ha, category vs stressed control plants, 2-3 pots
Protocol: Seeds of monocotyledonous and dicotyledonous crop plants were sown in sandy loam in plastic pots, covered with soil or sand and cultivated in a greenhouse under good growth conditions. The test plants were treated at the early leaf stage (BBCH10-BBCH13). To assure uniform water supply before commencement of stress, the potted plants were supplied with water by dam irrigation prior to substance application. The inventive compounds, formulated in the form of wettable powders (WP), were sprayed onto the green parts of the plants as an aqueous suspension at an equivalent water application rate of 600 I/ha with addition of 0.2% wetting agent (e.g. agrotin). Substance application was followed immediately by stress treatment of the plants. Drought stress was induced by gradual drying out under the following conditions: “Day”: 14 hours with illumination at 26-30° C. “Night”: 10 hours without illumination at 18-20° C. The duration of the respective stress phases was guided mainly by the condition of the stressed control plants. It was ended (by re-irrigating and transfer to a greenhouse with good growth conditions) as soon as irreversible damage was observed on the stressed control plants. The end of the stress phase was followed by an about 4-7-day recovery phase, during which the plants were once again kept under good growth conditions in a greenhouse. The duration of the recovery phase was guided mainly by when the trial plants had attained a state which enabled visual scoring of potential effects, and was therefore variable. Once this juncture had been reached, the appearance of the plants treated with test substances was recorded in comparison to the stressed control plants by the following categories: [table] In order to rule out any influence on the effects observed by any fungicidal or insecticidal action of the test compounds, it was additionally ensured that the tests proceeded without fungal infection or insect infestation. For each substance and dosage, 2-3 pots were treated and evaluated. BRSNS=Brassica napus

Zea mays (ZEAMX) = experiment: In vivo analyses Part B: drought stress, appearance vs stressed control plants in categories (ZEAMX); settings: spray application 25 g/ha, category vs stressed control plants, 2-3 pots
Protocol: Seeds of monocotyledonous and dicotyledonous crop plants were sown in sandy loam in plastic pots, covered with soil or sand and cultivated in a greenhouse under good growth conditions. The test plants were treated at the early leaf stage (BBCH10-BBCH13). To assure uniform water supply before commencement of stress, the potted plants were supplied with water by dam irrigation prior to substance application. The inventive compounds, formulated in the form of wettable powders (WP), were sprayed onto the green parts of the plants as an aqueous suspension at an equivalent water application rate of 600 I/ha with addition of 0.2% wetting agent (e.g. agrotin). Substance application was followed immediately by stress treatment of the plants. Drought stress was induced by gradual drying out under the following conditions: “Day”: 14 hours with illumination at 26-30° C. “Night”: 10 hours without illumination at 18-20° C. The duration of the respective stress phases was guided mainly by the condition of the stressed control plants. It was ended (by re-irrigating and transfer to a greenhouse with good growth conditions) as soon as irreversible damage was observed on the stressed control plants. The end of the stress phase was followed by an about 4-7-day recovery phase, during which the plants were once again kept under good growth conditions in a greenhouse. The duration of the recovery phase was guided mainly by when the trial plants had attained a state which enabled visual scoring of potential effects, and was therefore variable. Once this juncture had been reached, the appearance of the plants treated with test substances was recorded in comparison to the stressed control plants by the following categories: [table] In order to rule out any influence on the effects observed by any fungicidal or insecticidal action of the test compounds, it was additionally ensured that the tests proceeded without fungal infection or insect infestation. For each substance and dosage, 2-3 pots were treated and evaluated. ZEAMX=Zea mays

[1] = test system: Triticum aestivum (TRZAS); experiment: In vivo analyses Part B: drought stress, appearance vs stressed control plants in categories (TRZAS); settings: spray application 250 g/ha, category vs stressed control plants, 2-3 pots
Protocol: Seeds of monocotyledonous and dicotyledonous crop plants were sown in sandy loam in plastic pots, covered with soil or sand and cultivated in a greenhouse under good growth conditions. The test plants were treated at the early leaf stage (BBCH10-BBCH13). To assure uniform water supply before commencement of stress, the potted plants were supplied with water by dam irrigation prior to substance application. The inventive compounds, formulated in the form of wettable powders (WP), were sprayed onto the green parts of the plants as an aqueous suspension at an equivalent water application rate of 600 I/ha with addition of 0.2% wetting agent (e.g. agrotin). Substance application was followed immediately by stress treatment of the plants. Drought stress was induced by gradual drying out under the following conditions: “Day”: 14 hours with illumination at 26-30° C. “Night”: 10 hours without illumination at 18-20° C. The duration of the respective stress phases was guided mainly by the condition of the stressed control plants. It was ended (by re-irrigating and transfer to a greenhouse with good growth conditions) as soon as irreversible damage was observed on the stressed control plants. The end of the stress phase was followed by an about 4-7-day recovery phase, during which the plants were once again kept under good growth conditions in a greenhouse. The duration of the recovery phase was guided mainly by when the trial plants had attained a state which enabled visual scoring of potential effects, and was therefore variable. Once this juncture had been reached, the appearance of the plants treated with test substances was recorded in comparison to the stressed control plants by the following categories: [table] In order to rule out any influence on the effects observed by any fungicidal or insecticidal action of the test compounds, it was additionally ensured that the tests proceeded without fungal infection or insect infestation. For each substance and dosage, 2-3 pots were treated and evaluated. TRZAS=Triticum aestivum

| Compound | Effect (BRSNS) (Brassica napus (BRSNS)) | Effect (ZEAMX) (Zea mays (ZEAMX)) | Effect (TRZAS) [1] |
| --- | --- | --- | --- |
| CC/C(C#CC(O)(c1ccccc1)C1(C#N)CC1)=C/C(=O)OC (stereo not shown) [I.1-202] | 20 | 10-20 | 20 |
| CCCOC(=O)/C=C(\C#CC(O)(c1ccccc1)C1(C#N)CC1)CC (stereo not shown) [I.1-609] | 10-20 | 20 | 10 |
| CCCOC(=O)/C=C(\C#CC(O)(C(C)C)C1(C#N)CC1)CC (stereo not shown) [I.1-605] | 20 | – | 20 |
| COC(=O)/C=C(/C)C#CC(O)(C(C)C)C1(C#N)CC1 (stereo not shown) [I.1-135] | 30 | – | 30 |
| CCOC(=O)/C=C(\C#CC(O)(C(C)C)C1(C#N)CC1)CC (stereo not shown) [I.1-103] | 30 | 10-20 | 10-20 |
